Measured values reported in US12509421B2, “Preparation and application of deuterated 4-phenyl-4-piperidinols” (priority 2022, dated 2025).
Counter-ions that a name gives are not always drawn.

Columns and labels:
μOR = target: T1, μOR (Homo sapiens, UniProt P35372); test: Opioid receptor competitive binding test, μOR; details: compound at 10 μM; [3H]-labeled ligand; CHO cell membranes; ± SD of three measurements
T1 construct: expressed in transfected cells; host or cells: CHO cells
Protocol: CHO cells expressing p opioid receptor, δ opioid receptor and K opioid receptor are cultured in a 10 cm^2 Petri dish (F-12 medium+10% newborn bovine serum) for several days, and the culture solution is sucked after the cells grew to the bottom of the dish. 3 ml PBS/EDTA solution (0.1M NaCl, 0.01M NaH2PO4, 0.04% EDTA) is added for digestion for 3-5 minutes. The cells are blown with a straw to get fall off completely, collected in a 40 ml centrifuge tube, centrifuged at 5000 rpm for 5 minutes, and removed with the supernatant. The centrifuge tube is added with ice-cold homogenate (50 mM HEPES PH 7.4, 3 mM MgCl2, 1 mM EGTA). The solution and precipitate are transferred to homogenizer for homogenization; Then the homogenate is transferred into a centrifuge tube, centrifuged at 18000 rpm for 15 minutes, and centrifuged twice; the obtained precipitate is added with an appropriate amount of buffer solution of 50 mM Tris-HCl and pH 7.4, homogenized and sub-packaged in centrifuge tubes. The product is stored in a refrigerator at −70° C. for later use.
20-30 μg expressed membrane receptor protein and [3H]-labeled ligand (1-2 nM) are added to the total binding tube, added with 1 μM of corresponding ligand to the corresponding nonspecific binding tube. Various screened opioid ligand drugs (see the drug compounds in Table 1 below) are added to the sample tube with 100 μL final volume. The sample is incubated at 30° C. for 30 minutes, and the reaction is terminated in ice water. The glass fiber filter paper gF/C (whatman) is used for negative pressure filtration on Millipore sample collector. The sample is eluted with 4 ml 50 mm tris-HCl (pH 7.4) for three times, dried with the filter paper, put in 0.5 ml Eppendorf tube and added with 0.5 ml lipophilic scintillation liquid. The radioactive intensity is measured with PERKIN ELMER PRI-CARB 2910 liquid scintillation counter with calculation of the inhibition rate. The experiment is repeated for more than three times, with three compound tubes in each group. Inhibition rate(or binding rate)=(total binding rate dpm−sample tube dpm)/(total binding tube dpm-nonspecific binding tube dpm)×100%
IC50 is calculated with Prism 5.0 software. The Ki value is calculated according to the following formula: Ki=IC50/(1^+[L]/Kd), wherein [L] is the concentration of the added labeled ligand, and Kd is the equilibrium dissociation parameter of the labeled ligand.

CYP 2C9 = CYP 2C9 (Homo sapiens, UniProt P11712); test: Inhibition of cytochrome P450 enzyme in human liver microsomes, CYP 2C9
Sequence of CYP 2C9 (P11712 whole entry): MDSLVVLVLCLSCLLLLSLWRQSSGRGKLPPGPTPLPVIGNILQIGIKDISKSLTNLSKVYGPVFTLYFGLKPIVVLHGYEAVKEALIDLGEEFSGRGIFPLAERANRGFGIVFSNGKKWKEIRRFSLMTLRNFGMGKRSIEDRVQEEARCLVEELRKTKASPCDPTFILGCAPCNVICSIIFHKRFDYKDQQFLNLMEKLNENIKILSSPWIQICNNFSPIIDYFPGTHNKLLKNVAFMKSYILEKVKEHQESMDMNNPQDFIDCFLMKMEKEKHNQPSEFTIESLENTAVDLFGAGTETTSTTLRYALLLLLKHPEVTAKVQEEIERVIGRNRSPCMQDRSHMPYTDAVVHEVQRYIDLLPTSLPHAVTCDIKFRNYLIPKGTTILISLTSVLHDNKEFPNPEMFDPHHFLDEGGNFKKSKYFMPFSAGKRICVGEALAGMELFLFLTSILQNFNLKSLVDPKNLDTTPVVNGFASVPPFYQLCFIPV

Female Kunming mice = test: Hot plate analgesia test in mice; type: in vivo; details: intraperitoneal, 55° C. hot plate; for ED50: Mus musculus, ip
Protocol: Female Kunming mice weighing about 20 g are placed on a hot plate instrument preheated to 55° C., and the latency of licking hind feet or lifting hind feet is used as the pain threshold index. Animals are screened before the experiment, and animals with latency less than 5 s or more than 30 s are excluded. To prevent foot burns, the longest observation time is set to 60s. The basic pain threshold is the average of two measurements, and the interval between the two measurements is 5 minutes. The pain threshold of mice in each group is determined at 15 minutes, 30 minutes, 60 minutes and 120 minutes after intraperitoneal administration. The effective percentage of analgesia (% MPE) is calculated according to the following formula
[formula] According to the effective percentage of analgesia, the ED50 value is calculated by graphpad prism 5.0 software.

[1] = Metabolic stability in liver microsomes, dog; details: for half-life at 2 μM / microsomal CLint at 2 μM: dog, microsomes, pH 7.4
Protocol: The solution B is slowly dropped into solution A, and the pH is adjusted to 7.40±0.05.
• Control drug: 4 μL Verapamil solution (10 mM) is added with 96 μL DMSO and diluted to 400 μM; • Compound to be tested: 4 μL compound to be tested (10 mM) is added with 96 μL normal saline and diluted to 400 μM.
The microsomes are stored in the refrigerator at −80° C., thawed at room temperature after being taken out, and mixed gently.
[…] PBS (100 mm, pH=7.4) solution is added to the negative sample. The solution is put into water bath at 37° C. and pre-incubated for 10 minutes; • B) After incubation, 2 μL reference drug or compound to be tested (400 μM) are added into each well to start the reaction.

ICR mice = test: Evaluation of side effects of constipation (defecation time, number, weight); type: in vivo; details: for Number of defecating animals: 10 mice per group; for Number of defecating animals / Fecal weight: within 5 hours; for Defecation time: first black stool; for Defecation time / water content of feces / Fecal weight: x ± SE; for Defecation time / water content of feces: only animals that defecate within 5 hours
Protocol: Constipation side effect is a common side effect of opioid drugs. This patent evaluates the possibility of constipation side effect by the influence of the compound on defecation time, defecation quantity and defecation weight of experimental animals.
ICR mice are randomly divided into 6 groups with 10 mice in each group after adaptive feeding. Fasting for 16-24 h, without stopping drinking, the blank control group is given solvent, during which the normal diet is: (1) the blank control group; (2) Compound diphenoxylate (7.5 mg/kg) group; (3) Low dose (1 mg/kg) group; (4) High dose (5 mg/kg) group of the compound to be tested.
After administration for 30 minutes, the mice in each group are given Chinese ink by gavage. After administration, the mice are kept in a single cage, and the excretion time of the first black stool is recorded. The number and weight (wet weight) of defecation particles in each mouse within 5 hours after administration are recorded. each group of mice are placed in an IVC cage with clean filter paper. The feces of each mouse are collected, put into a sterile 1.5 ml EP tube and stored in an ice box. During the collection, the number of defecation particles of each mouse is recorded, and the wet weight is weighed. After the collected feces are dried, the dry weight of the feces is recorded. Drying conditions: put fresh feces in an oven and bake at 100° C. for 5-10 minutes until the dry weight of feces is constant. The following formula is used to calculate the water content of feces, and the water content of feces (%)=(wet feces mass−dry feces mass)/wet feces mass×100%.
The data required for measurement and observation in this experiment are recorded in the corresponding table. All data are statistically processed by Microsoft Excel, and expressed as “mean standard error”. The data of each group are statistically analyzed by SPSS software package.

[2] = Dog liver microsomes 0.5 mg/mL, NADPH 1 mM, compound 2 μM

T1 sequence (P35372 whole entry): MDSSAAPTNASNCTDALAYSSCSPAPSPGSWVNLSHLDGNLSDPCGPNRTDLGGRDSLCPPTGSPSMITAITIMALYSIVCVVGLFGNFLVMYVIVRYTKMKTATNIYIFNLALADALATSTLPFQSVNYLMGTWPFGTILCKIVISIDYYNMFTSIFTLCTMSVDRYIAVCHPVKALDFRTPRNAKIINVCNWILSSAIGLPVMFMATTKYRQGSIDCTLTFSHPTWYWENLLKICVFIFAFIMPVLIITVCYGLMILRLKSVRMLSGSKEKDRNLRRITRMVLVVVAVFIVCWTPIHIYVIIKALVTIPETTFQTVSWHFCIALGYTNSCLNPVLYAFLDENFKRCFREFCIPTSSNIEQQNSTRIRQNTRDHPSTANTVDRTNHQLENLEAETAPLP

| Compound | μOR binding rate (μOR) [%] | IC50 (CYP 2C9) [µM] | ED50 (Female Kunming mice) [mg/kg] | half-life at 2 μM [1] [min] | microsomal CLint at 2 μM [1] [µL/min/mg] | Number of defecating animals (ICR mice; 1 mg/kg) | Defecation time (ICR mice; 1 mg/kg) [min] | water content of feces (ICR mice; 1 mg/kg) [%] | Fecal weight (ICR mice; 1 mg/kg) [g] | Number of defecating animals (ICR mice; 5 mg/kg) | Defecation time (ICR mice; 5 mg/kg) [min] | water content of feces (ICR mice; 5 mg/kg) [%] | Fecal weight (ICR mice; 5 mg/kg) [g] | ED50, hot plate (Female Kunming mice) [mg/kg] | CLint [1, 2] [μL/min/mg protein] | t1/2 [1, 2] [min] | Number of defecating animals (ICR mice; 5 mg/kg, hydrochloride) | Number of defecating animals (ICR mice; 5 mg/kg, listed as Example 20 in patent CN201911076305.X, hydrochloride) | constipation in experimental animals (ICR mice; comparative experiments of the inventor) |
| --- | --- | --- | --- | --- | --- | --- | --- | --- | --- | --- | --- | --- | --- | --- | --- | --- | --- | --- | --- |
| [2H]C([2H])([2H])N(C)C[C@@H]1CN(S(=O)(=O)Cc2ccccc2)CC[C@@]1(O)c1cccc(OC)c1 [II-1hydrochloride] | 27.9 ± 1.3 | > 50 | 0.52 | 5.01 | 605 | 9 | 105.9 ± 10.5 | 43.5 ± 2.6 | 0.3682 ± 0.0816 | 3 | 202.4 ± 6.2 | 38.2 ± 8.6 | 0.0586 ± 0.0065 |  |  |  |  |  |  |
| COc1cccc([C@]2(O)CCN(S(=O)(=O)Cc3ccccc3)C[C@H]2CN(C)C)c1.Cl [Example 20 of CN201911076305.X, reference compound] | 27.52 ± 1.54 |  |  |  |  | 9 | 281 ± 4 | 19.6 ± 4.5 | 0.1243 ± 0.0153 |  |  | 0 | 0 | 0.49 | 839.02 | 1.65 | 0 | did not defecate | can cause constipation in experimental animals in a dose-dependent manner |
| [2H]C([2H])([2H])N(C)C[C@@H]1CN(C(=O)Cc2cc(F)c(F)cc2F)CC[C@@]1(O)c1cccc(OC)c1 [II-7hydrochloride, 1-((3R,4S)-4-hydroxy-4-(3-methoxyphenyl)-3-(((methyl-d3)amino)methyl)-1-piperidinyl)-2(2,4,5-trifluorophenyl)ethyl-1-one] | 26.1 ± 2.3 | > 50 | 0.51 | 5.25 | 669 | 9 | 109.0 ± 8.8 | 44.8 ± 3.2 | 0.3846 ± 0.0798 | 3 | 200.6 ± 7.9 | 38.6 ± 7.9 | 0.0612 ± 0.0079 |  |  |  |  |  |  |
| [2H]C([2H])([2H])Oc1cccc([C@]2(O)CCN(C(=O)Cc3cc(F)c(F)cc3F)C[C@H]2CN(C([2H])([2H])[2H])C([2H])([2H])[2H])c1 [II-11hydrochloride] | 24.3 ± 1.9 | > 50 | 0.64 | 5.99 | 703 | 8 | 190.3 ± 12.7 | 43.5 ± 2.8 | 0.3402 ± 0.0828 | 2 | 265.9 ± 13.1 | 38.2 ± 9.5 | 0.0496 ± 0.0067 |  |  |  |  |  |  |
| [2H]C([2H])([2H])Oc1cccc([C@]2(O)CCN(S(=O)(=O)Cc3ccccc3)C[C@H]2CN(C([2H])([2H])[2H])C([2H])([2H])[2H])c1 [II-5hydrochloride] | 27.1 ± 1.2 | > 50 | 0.58 | 6.03 | 720 | 8 | 160.1 ± 9.9 | 42.7 ± 1.9 | 0.3389 ± 0.0902 | 2 | 202.8 ± 4.2 | 37.6 ± 8.6 | 0.0478 ± 0.0061 |  |  |  |  |  |  |
| [2H]C([2H])([2H])N(C[C@@H]1CN(S(=O)(=O)Cc2ccccc2)CC[C@@]1(O)c1cccc(OC)c1)C([2H])([2H])[2H] [II-3hydrochloride] | 28.2 ± 1.5 | > 50 | 0.5 | 5.26 | 663 | 8 | 152.8 ± 4.1 | 43.0 ± 2.1 | 0.3396 ± 0.0965 | 2 | 243.6 ± 10.5 | 37.8 ± 8.9 | 0.0482 ± 0.0053 |  |  |  |  |  |  |
| [2H]C([2H])([2H])N(C[C@@H]1CN(C(=O)Cc2cc(F)c(F)cc2F)CC[C@@]1(O)c1cccc(OC)c1)C([2H])([2H])[2H] [II-9hydrochloride] | 27.1 ± 1.1 | > 50 | 0.52 | 5.19 | 659 | 8 | 182.6 ± 10.2 | 43.2 ± 2.5 | 0.3399 ± 0.0983 | 2 | 242.9 ± 11.9 | 37.9 ± 8.9 | 0.0489 ± 0.0073 |  |  |  |  |  |  |
